Measured values taken from patent US5525591A, “Endoparasiticidal compositions based on open-chain octadepsipeptides” (Bayer Aktiengesellschaft, priority 1993, dated 1996).

System: Haemonchus contortus
Experiment: In vivo nematode test Haemonchus contortus/sheep
Settings: sheep infected experimentally with Haemonchus contortus, treated after prepatency period; pure active compound applied orally and/or intravenously; dose at which nematode egg excretion with the faeces stopped completely
Method: In vivo nematode test Haemonchus contortus/sheep
The degree of effectiveness is determined by quantitatively determinating the nematode eggs excreted with the faeces before and after the treatment.

tert-Butyl-N-Benzyl-N-propyl-L-leucyl-D-lactyl-N-^i -propyl-L-leucyl-D-3-phenyllactyl-N-^i propyl-L-leucyl-D-lactyl-N-^i propyl-L-leucyl-D-3-phenyllactate [Example 2]
Dosis effectiva: 10 mg/kg
